According to PubChem BioAssay (NCI):
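All cell lines were grown in 96-well plates and treated with compound for 48 hours. At the GI50, growth is halved. TGI: concentration producing complete growth inhibition.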

What was measured:
Assay in all cases: NCI tumour cell line growth inhibition, 48 h
[1] = system: OVCAR-8 ovarian
[2] = system: NCI/ADR-RES ovarian
[3] = system: 786-0 renal
[4] = system: EKVX NSCLC
[5] = system: SNB-19 CNS
[6] = system: M14 melanoma
[7] = system: K-562 leukemia
[8] = system: SK-OV-3 ovarian
[9] = system: BT-549 breast
[10] = system: MDA-MB-435

Row | Compound | GI50 [1] [µM] | TGI [1] [µM] | GI50 [2] [µM] | TGI [2] [µM] | GI50 [3] [µM] | TGI [3] [µM] | GI50 [4] [µM] | TGI [4] [µM] | GI50 [5] [µM] | TGI [5] [µM] | GI50 [6] [µM] | TGI [6] [µM] | GI50 [7] [µM] | TGI [7] [µM] | GI50 [8] [µM] | TGI [8] [µM] | GI50 [9] [µM] | TGI [9] [µM] | GI50 [10] [µM] | TGI [10] [µM]
1 | O=c1oc2ccc(F)cc2c(=O)n1-c1ccc(Br)cc1F | 1.59 | > 100 | 0.85 | 8.9 | 2.79 | 9.42 | 1.85 | 9.74 | 0.45 | > 80.8 | 0.434 | 5.08 | 0.422 | > 100 | 0.427 | 6.25 | 0.411 | 2.19 | 0.623 | 6.64
2 | NC(N)=N/N=C/c1c(-c2ccc(Cl)c([N+](=O)[O-])c2)nc2n1CCS2 | 8.89 | > 100 | 15.8 | 32.7 | 4.18 | 15.3 | 12.7 | 26.3 | 4.67 | > 100 | 15.4 | 29.1 | 3.96 | 16.6 | 24.7 | 75.1 | 21.5 | 50.2 | 9.63 | 22.2
3 | Nc1ncnc2c1c(-c1ccc(Oc3ccccc3)cc1)nn2C[C@@H]1SSC[C@@H]1O | 0.36 | 12.2 | 1.05 | 7.8 | 2.75 | 11.1 | 0.373 | 5.84 | 1.03 | 14 | 0.0212 | 0.0462 | 0.295 | 3.21 | 0.498 | 3.71 | 3.53 | 13.4 | 0.101 | 0.256
